Experimental data published in patent publication US20130012466A1 (priority 2006, published 2013).
Like-named read-outs stand apart in the source and are kept apart here.

Legend:
[1] = tested on: mouse mammary normal epithelial control cell line; experiment: Cytotoxicity assay, normal control cell line
SK-OV-3 = experiment: Cytotoxicity assay (cell titer-glo and calcein AM), SK-OV-3; conditions: SK-OV-3, % error in parentheses
SF-268 = experiment: Cytotoxicity assay (cell titer-glo and calcein AM), SF-268; conditions: SF-268, % error in parentheses
NCI-H460 = experiment: Cytotoxicity assay (cell titer-glo and calcein AM), NCI-H460; conditions: NCI-H460, % error in parentheses
A549 = experiment: Cytotoxicity assay (cell titer-glo and calcein AM), A549; conditions: A549, % error in parentheses
MCF7 = experiment: Cytotoxicity assay (cell titer-glo and calcein AM), MCF7
Du145 = experiment: Cytotoxicity assay (cell titer-glo and calcein AM), Du145; conditions: Du145, % error in parentheses
Hep3B = experiment: Cytotoxicity assay (cell titer-glo and calcein AM), Hep3B; conditions: Hep 3B, % error in parentheses
ADR-RES = experiment: Cytotoxicity assay (cell titer-glo and calcein AM), ADR-RES; conditions: NCI/ADR RES, % error in parentheses
[2] = read-out: Cytotoxicity IC50, NmuMG, CTG, CTG (cell titer-glo) readout, % error in parentheses
[3] = read-out: Cytotoxicity IC50, NmuMG, calcein, calcein AM readout, % error in parentheses
[4] = read-out: Cytotoxicity IC50, SK-OV-3, CTG, CTG (cell titer-glo) readout
[5] = read-out: Cytotoxicity IC50, SK-OV-3, calcein, calcein AM readout
[6] = read-out: Cytotoxicity IC50, SF-268, CTG, CTG (cell titer-glo) readout
[7] = read-out: Cytotoxicity IC50, SF-268, calcein, calcein AM readout
[8] = read-out: Cytotoxicity IC50, NCI-H460, CTG, CTG (cell titer-glo) readout
[9] = read-out: Cytotoxicity IC50, NCI-H460, calcein, calcein AM readout
[10] = read-out: Cytotoxicity IC50, A549, CTG, CTG (cell titer-glo) readout
[11] = read-out: Cytotoxicity IC50, A549, calcein, calcein AM readout
[12] = read-out: Cytotoxicity IC50, MCF7, CTG, CTG (cell titer-glo) readout, % error in parentheses
[13] = read-out: Cytotoxicity IC50, MCF7, calcein, calcein AM readout, % error in parentheses
[14] = read-out: Cytotoxicity IC50, Du145, CTG, CTG (cell titer-glo) readout
[15] = read-out: Cytotoxicity IC50, Du145, calcein, calcein AM readout
[16] = read-out: Cytotoxicity IC50, Hep 3B, CTG, CTG (cell titer-glo) readout
[17] = read-out: Cytotoxicity IC50, Hep 3B, calcein, calcein AM readout
[18] = read-out: Cytotoxicity IC50, NCI/ADR RES, CTG, CTG (cell titer-glo) readout
[19] = read-out: Cytotoxicity IC50, NCI/ADR RES, calcein, calcein AM readout

Compound	IC50 [1, 2]	IC50 [1, 3]	IC50 (SK-OV-3; [4])	IC50 (SK-OV-3; [5])	IC50 (SF-268; [6])	IC50 (SF-268; [7])	IC50 (NCI-H460; [8])	IC50 (NCI-H460; [9])	IC50 (A549; [10])	IC50 (A549; [11])	IC50 (MCF7; [12])	IC50 (MCF7; [13])	IC50 (Du145; [14])	IC50 (Du145; [15])	IC50 (Hep3B; [16])	IC50 (Hep3B; [17])	IC50 (ADR-RES; [18])	IC50 (ADR-RES; [19])
COc1cc2c(c(OC)c1OC)-c1ccc(OC)c(=O)cc1C(NC(=O)CN(OC)C1OC(C)C(O)C(O)C1O)CC2 [Col37, L-rhamnoside]	7.72 µM	7.76 µM	5.58 µM	> 10 µM	4.79 µM	4.68 µM	3.72 µM	6.7 µM	7.07 µM	7.28 µM	3.81 µM	1.56 µM	5.81 µM	4.36 µM	8.26 µM	9.57 µM	4.56 µM	4.48 µM
COc1cc2c(c(OC)c1OC)-c1ccc(OC)c(=O)cc1[C@@H](NC(=O)CN(OC)[C@@H]1O[C@H](CO)[C@@H](O)C[C@H]1O)CC2 [Col3, 3-deoxy-D-glucoside]	> 10 µM	> 10 µM	4.42 µM	4.21 µM	5.32 µM	8.42 µM	8.37 µM	1.96 µM	9.91 µM	> 10 µM	3.25 µM	> 10 µM	> 10 µM	6.56 µM	5.16 µM	4.07 µM	> 10 µM	> 10 µM
COc1cccc2c1C(=O)c1c(O)c3c(c(O)c1C2=O)C[C@@](O)(C(=O)CO)C[C@@H]3O[C@H]1C[C@H](N)[C@H](O)[C@H](C)O1 [doxorubi]	–	–	0.394 µM	0.621 µM	0.249 µM	0.385 µM	–	–	–	–	–	–	0.842 µM	0.339 µM	0.519 µM	0.268 µM	0.57 µM	–
novioside [Col29]	> 5 µM	> 5 µM	1.03 µM	4.35 µM	1.12 µM	1.28 µM	0.98 µM	3.37 µM	1.86 µM	2.18 µM	0.61 µM	0.3 µM	1.24 µM	0.55 µM	2.47 µM	2.94 µM	1.56 µM	1.18 µM
mycaroside [Col49]	> 10 µM	8.84 µM	> 10 µM	> 10 µM	9.94 µM	7.86 µM	≥ 10 µM	9.31 µM	> 10 µM	> 10 µM	4.38 µM	5.21 µM	5.2 µM	8.56 µM	9.76 µM	> 10 µM	5.38 µM	> 10 µM
COc1cc2c(c(OC)c1OC)-c1ccc(OC)c(=O)cc1C(NC(=O)CN(OC)C1OC(C)C(O)C(O)C1O)CC2 [Col14, L-fucoside]	> 10 µM	> 10 µM	> 10 µM	> 10 µM	5.28 µM	9.89 µM	9.03 µM	> 10 µM	> 10 µM	> 10 µM	4.95 µM	> 10 µM	> 10 µM	> 10 µM	> 10 µM	> 10 µM	> 10 µM	> 10 µM
COc1cc2c(c(OC)c1OC)-c1ccc(OC)c(=O)cc1C(NC(=O)CN(OC)C1OCC(O)C(O)C1O)CC2 [Col17, L-xyloside]	> 10 µM	> 10 µM	> 10 µM	> 10 µM	5.93 µM	9.72 µM	5.17 µM	5.61 µM	9.4 µM	> 10 µM	6.22 µM	5.09 µM	8.48 µM	> 10 µM	> 10 µM	> 10 µM	> 10 µM	> 10 µM
COc1cc2c(c(OC)c1OC)-c1ccc(OC)c(=O)cc1[C@@H](NC(=O)CN(OC)[C@@H]1OC[C@@H](O)[C@@H](O)[C@H]1O)CC2 [Col5, D-riboside]	> 10 µM	> 10 µM	> 10 µM	> 10 µM	5.01 µM	4.59 µM	5.06 µM	5.76 µM	> 10 µM	> 10 µM	2.84 µM	2.88 µM	> 10 µM	6.78 µM	9.86 µM	6.52 µM	4.84 µM	5.06 µM
COc1cc2c(c(OC)c1OC)-c1ccc(OC)c(=O)cc1[C@@H](NC(=O)CN(OC)[C@@H]1O[C@H](CBr)[C@H](O)[C@H](O)[C@H]1O)CC2 [Col42, 6-deoxy-6-bromo-D-galactoside]	2.83 µM	2.92 µM	8.36 µM	> 10 µM	6.37 µM	3.31 µM	4.4 µM	> 10 µM	3.94 µM	2.64 µM	4.9 µM	3.69 µM	4.47 µM	4.26 µM	> 10 µM	> 10 µM	2.49 µM	2.23 µM
COc1cc2c(c(OC)c1OC)-c1ccc(OC)c(=O)cc1[C@@H](NC(=O)CN(OC)[C@@H]1O[C@H](CO)[C@@H](O)[C@H](F)[C@H]1O)CC2 [Col33, 3-fluoro-3-deoxy-D-glucoside]	5.93 µM	> 10 µM	1.25 µM	1.89 µM	0.86 µM	2.33 µM	4.39 µM	> 10 µM	2.02 µM	1.87 µM	6.64 µM	6.13 µM	9.6 µM	5.44 µM	2.67 µM	1.99 µM	> 10 µM	> 10 µM
COc1cc2c(c(OC)c1OC)-c1ccc(OC)c(=O)cc1[C@@H](NC(=O)CN(OC)[C@@H]1O[C@H](CCl)[C@H](O)[C@H](O)[C@H]1O)CC2 [Col41, 6-deoxy-6-chloro-D-galactoside]	> 10 µM	9.27 µM	5.61 µM	7.95 µM	6.93 µM	7.87 µM	5.48 µM	2.31 µM	3.7 µM	1.07 µM	3.36 µM	1.85 µM	6.69 µM	6.74 µM	8.8 µM	5.99 µM	4.97 µM	3.68 µM
CCCCCCCCCC(=O)N[C@@H]1[C@@H](O)[C@H](N(CC(=O)N[C@H]2CCc3cc(OC)c(OC)c(OC)c3-c3ccc(OC)c(=O)cc32)OC)O[C@H](CO)[C@H]1O [Col60, 3-deoxy-3-N-decanoyl-D-glucosaminoside]	8.37 µM	6.04 µM	4.38 µM	4.15 µM	5.03 µM	4.13 µM	3.98 µM	5.88 µM	> 10 µM	> 10 µM	3.36 µM	3.04 µM	4.79 µM	6.2 µM	4.97 µM	> 10 µM	4.98 µM	4.65 µM
COc1cc2c(c(OC)c1OC)-c1ccc(OC)c(=O)cc1C(NC(=O)CN(OC)C1OCC(O)C(O)C1O)CC2 [Col20, D-arabinoside]	> 10 µM	> 10 µM	> 10 µM	> 10 µM	2.54 µM	3.95 µM	5.21 µM	3.71 µM	9.07 µM	> 10 µM	4.44 µM	2.35 µM	2.41 µM	3.74 µM	> 10 µM	> 10 µM	7.85 µM	7.74 µM
COc1cc2c(c(OC)c1OC)-c1ccc(OC)c(=O)cc1[C@@H](NC(C)=O)CC2 [Col]	–	–	> 10 µM	–	> 10 µM	> 10 µM	–	–	–	–	–	–	> 10 µM	4.67 µM	> 10 µM	9.38 µM	> 10 µM	6.32 µM
